In data set [1] the test system is fibroblasts. Description: Resistance of fibroblasts subjected to t-BHP (MTT cytotoxicity curve). It counts as cell-based. The conditions noted are these: 10^−5 M CLM, MTT test. An excerpt:
FIG. 5 illustrates the increase in the resistance of fibroblasts subjected to the action of t-BHP by means of 10^−5 M CLM.

The test system of data set [2] is rat hepatocytes. The data set is described as follows: Protection of hepatocytes treated with t-BHP (LDH release, mortality). It counts as cell-based. As to the method:
(§1) Primary cultures of hepatocytes were subjected to the action of tert-butyl hydroperoxide (t-BHP) and nitrofurantoin (NF). The action of t-BHF is associated with its direct oxidizing power, while the action of NF results from the production of superoxide anions during its metabolization by the cytochrome P450 of cells.
The mortality, which is 75% in the controls, reaches only a few % in the presence of 50 μM CLM.
In general terms: LDH in the medium is a marker of cell lysis.

Data set [3] relates to rat hepatocytes. Description: Toxicity on primary cultures of rat hepatocytes (24 h, total proteins, Bradford method). Format: cell-based. As to conditions: 1.3×10^−5 to 5×10^−4 M CLM. The method, then: (§2) Coetenteramine was applied to primary cultures of rat hepatocytes cultured in microplates (20,000 cells per well, 200 μl ). The doses of CLM ranged from 1.3×10^−5 to 5×10^−4 M. After a period of 24 hours, their survival was evaluated by measuring the contents of total proteins in each well (Bradford method). […] Similar results were obtained on human fibroblasts (MRC-5) and human intestinal cells (CACO2).

In data set [4] the test system is hepatocytes. Description: Protection of hepatocytes subjected to nitrofurantoin (MTT survival). It counts as cell-based, rat. The conditions noted are these: 3×10^−4 M NF for 6 hours, 5×10^−5 M CLM, MTT method, % of the controls. As to the method:
as §1
FIG. 4 illustrates the survival of hepatocytes subjected to the action of 3×10^−4 M NF for 6 hours. At the end of this treatment, the survival (estimated by the MTT method) was 18% in the control groups. If CLM is added to the culture medium, the survival of the hepatocytes increases regularly, to reach 70% of the controls at 5×10^−5 M CLM.
(Formazan colour is commonly taken as a measure of viable cells.)

Data set [5] has as its system human low-density lipoproteins. Description: In vitro oxidation of LDL by copper (joint dienes at 234 nm; TBARS). Format: biochemical. From the text:
(§3) Oxidation of the polyunsaturated fatty acids of LDL is accompanied by the formation of joint dienes, which have a maximum absorbance at 234 nm. These joint dienes result from rearrangement of the double bonds of polyunsaturated fatty acids following removal of a […] hydrogen. The increase in the absorption of joint dienes can be measured directly in solution without resorting to extraction of the lipids. A latency phase during which few dienes are produced, a propagation phase during which the absorbance at 234 nm increases rapidly to reach a plateau and a decomposition phase where the aldehydes formed also absorb in the region of 210-240 nm, thus producing a new increase in the absorbance at 234 nm, are observed in succession. Measurement of the conjugated dienes currently seems to be the best indicator of the oxidizability of LDL if pure LDL preparations are available (Esterbauer et al. (1989)). […]
(§4) To measure the joint dienes, a solution of LDL (final concentration of 50 μg protein/ml PBS buffer, pH 7.4) is incubated in the presence of 5 μM copper or […] and in the absence or in the presence of varying concentrations of CLM in a quartz cell with an optical path of 1 cm. The absorbances at 234 nm of various samples are measured as a function of time on a UV-visible spectrophotometer (DU-8, Beckman). […]

In data set [6] the test system is human intestinal cells (CACO2). Description: Toxicity on human intestinal cells (CACO2). Format: cell-based. As to the method: as §2
Data set [7] deals with low-density lipoproteins (LDL). Description: In vitro oxidation of LDL induced by AAPH (joint dienes, absorbance at 234 nm). As to conditions: increasing concentrations of CLM, 37° C. Format: biochemical.
Text: as §3, §4

The nature of data set [8]: Stability towards oxygen (powder and in aqueous and organic solvents; HPLC and TLC analysis). Format: physicochemical. An excerpt: In fact, this molecule is not changed by remaining in an aqueous solvent exposed to air for several days.
The test system of data set [9] is human fibroblasts (MRC-5). Description: Toxicity on human fibroblasts (MRC-5). Format: cell-based. As to the method: as §2

For the molecule `Nc1ncc(-c2ccc(O)cc2)nc1Cc1ccccc1` [Coelenteramine], in data set [1], the “cytotoxicity curve of t-BHP” value is “significant displacement of the cytotoxicity curve”. Besides, in data set [2] (50 μM CLM), the mortality result is “only a few %”. The “release of lactate dehydrogenase (LDH)” value in [2] (CLM 10 and 50 μM) is “reduction in the release of lactate dehydrogenase”. Besides, in [3], the “toxicity (percentage survival of controls)” value is “not at all toxic”. In addition, in data set [4], the survival of hepatocytes came out at 70%. In addition, in data set [5] (5 μM copper, 30° C.), the “protective action on LDL with respect to oxidation by copper” value was “significant protective action”. Besides, the “appearance of TBARS (MDA) in the oxidation of LDL” value in data set [5] (human LDL oxidized by Cu2+, as a function of time) is given as “delay in the appearance of TBARS”. Moreover, the toxicity entry in data set [6] and in data set [9] was “absence of toxicity” each time. The “appearance of joint dienes in the oxidation of LDL by AAPH” value in data set [7] was “significant slowing down in the appearance of joint dienes”. In data set [8] (aqueous solvent exposed to air for several days), the “degradation product identified by HPLC and TLC” value was “no degradation product”. Moreover, the stability towards oxygen result in data set [8] (powder and after solubilization in aqueous and organic solvents) is given as “excellent stability towards oxygen”.
